“Also recorded” adds a separate entry of the source. Read-outs that look alike come from different tables or passages of the source.
What was measured:
Akt2 = molecular target: T1, Akt2 (Homo sapiens, UniProt P31751); assay: HTRF KinEASE assay, IC50 against Akt2; assay type: biochemical; conditions: wild-type Akt2; mean ± SD, n=3
T1 construct: purchased ProQinase
Text: (§1) The homogeneous time‐resolved fluorescence (HTRF®) KinEASE™ assay by Cisbio was used to determine the half‐maximal inhibitory concentration (IC50) values of the synthesised compounds against Akt1, Akt2 and Akt3 (Table 1).[26]
(§2) The HTRF® KinEASE™ assay (Cisbio) was used to determine the IC 50 values of the synthesised
(§3) al. (Akt2 and Akt3).1,5 The three wild-type Akt isoforms used were acquired from ProQinase.

AN3CA cells = assay: CellTiter-Glo Luminescent Cell Viability Assay, AN3CA; assay type: cell-based; conditions: Homo sapiens, AN3-CA, read-out: EC50 AN3CA
KU-19-19 cells = assay: CellTiter-Glo Luminescent Cell Viability Assay, KU-19-19; assay type: cell-based; conditions: Homo sapiens, bladder cancer cell line, Akt1 E17K/E49K, mean ± SD, n=3
Method: The potential in vitro antiproliferative activity of the synthesised target compounds was investigated against a number of cancer cell lines by the CellTiter‐Glo® Luminescent Cell Viability Assay (from Promega Corporation, USA, catalogue number: G7570). The half‐maximal effective concentrations (EC50) of these compounds were determined against the AN3‐CA, BT‐474, KU‐19‐19, MCF‐7, T‐47D and ZR‐75‐1 cell lines originating from various tissues, i. e., breast, endometrium and bladder (Table S1). […]
The CellTiter-Glo® Luminescent Cell Viability Assay from Promega was used for the cellular assays, performed as explained by Weisner et al.7,8 Information on the cancer cell lines are given in Table S1, the control compounds used in Figure S3 and the results in Table S2.
Table S1. The cell lines used for the cellular assays, including what cancer type they are predominantly found in, and where the cell lines were acquired form.
Cell line Cancer type Acquired from AN3CA Endometrium ATCC (provided by Prof. Jan G. Hengstler at Leibniz-Institut für Arbeitsforschung Dortmund)
KU-19-19 Bladder Deutsche Sammlung von Mikroorganismen und Zellkulturen […]
BT-474 CLS Cell Lines Service (provided by Prof. Jan G. Hengstler at […] Leibniz-Institut für Arbeitsforschung Dortmund)

BT-474 cells = assay: CellTiter-Glo Luminescent Cell Viability Assay, BT-474; assay type: cell-based; conditions: Homo sapiens
MCF-7 cells = assay: CellTiter-Glo Luminescent Cell Viability Assay, MCF-7; assay type: cell-based; conditions: Homo sapiens
T47D cells = assay: CellTiter-Glo Luminescent Cell Viability Assay, T47D; assay type: cell-based; conditions: Homo sapiens, breast cancer cell line, mean ± SD, n=3
ZR-75-1 cells = assay: CellTiter-Glo Luminescent Cell Viability Assay, ZR-75-1; assay type: cell-based; conditions: Homo sapiens
Akt1 = Akt1 (Homo sapiens, UniProt P31749); assay: HTRF KinEASE assay, IC50 against Akt1; conditions: mean ± SD, n=3; for IC50: IC50 Akt1, wild-type Akt1
Akt1, sequence (P31749 whole entry): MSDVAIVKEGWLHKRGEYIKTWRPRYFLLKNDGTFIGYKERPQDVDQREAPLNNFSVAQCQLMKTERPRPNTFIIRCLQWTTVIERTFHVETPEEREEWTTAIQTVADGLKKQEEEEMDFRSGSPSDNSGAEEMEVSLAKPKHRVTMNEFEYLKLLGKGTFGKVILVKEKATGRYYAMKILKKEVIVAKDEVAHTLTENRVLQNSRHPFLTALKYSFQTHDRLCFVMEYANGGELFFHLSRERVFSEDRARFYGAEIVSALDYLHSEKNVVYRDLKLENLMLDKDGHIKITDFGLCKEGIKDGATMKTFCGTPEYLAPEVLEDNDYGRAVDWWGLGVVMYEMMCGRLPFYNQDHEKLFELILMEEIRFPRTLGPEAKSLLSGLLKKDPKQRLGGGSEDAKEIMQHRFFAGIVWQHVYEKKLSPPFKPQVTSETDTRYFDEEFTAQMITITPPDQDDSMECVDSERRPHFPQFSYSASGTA
Text: as §1, §2, §3

Akt3 = Akt3 (Homo sapiens, UniProt Q9Y243); assay: HTRF KinEASE assay, IC50 against Akt3
Akt3, sequence (Q9Y243 whole entry): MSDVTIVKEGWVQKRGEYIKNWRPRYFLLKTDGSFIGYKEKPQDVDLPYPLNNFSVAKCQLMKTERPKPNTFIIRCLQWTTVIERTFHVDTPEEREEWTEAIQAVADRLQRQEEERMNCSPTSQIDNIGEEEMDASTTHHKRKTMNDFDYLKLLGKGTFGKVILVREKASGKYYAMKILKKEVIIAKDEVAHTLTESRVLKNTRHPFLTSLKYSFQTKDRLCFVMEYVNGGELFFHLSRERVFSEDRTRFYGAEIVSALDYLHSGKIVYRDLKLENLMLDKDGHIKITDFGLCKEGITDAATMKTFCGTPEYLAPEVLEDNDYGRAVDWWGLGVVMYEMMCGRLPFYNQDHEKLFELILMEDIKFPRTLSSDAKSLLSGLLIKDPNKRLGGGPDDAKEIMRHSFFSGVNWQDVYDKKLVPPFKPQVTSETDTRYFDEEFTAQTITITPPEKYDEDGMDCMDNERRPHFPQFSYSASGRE
Text: as §1, §2, §3

wild-type Akt1 = molecular target: T2, wild-type Akt1 (Homo sapiens, UniProt P31749); assay: LC-MS identification of covalent binders after co-incubation with Akt1; assay type: binding; conditions: co-incubation with Akt1, Figure S1
T2 construct: made in house
T2 sequence (P31749 whole entry): as the sequence (P31749 whole entry) above
Text: 2. Evaluation results … 4
4. Molecular Modelling … 57
indicated covalent binding.

[1] = endometrium cancer cell line, mean ± SD, n=3
[2] = BT-474, breast cancer cell line, mean ± SD, n=3, read-out: EC50 BT‐474
[3] = MCF7, breast cancer cell line, mean ± SD, n=3, read-out: EC50 MCF‐7
[4] = ZR-75-1, breast cancer cell line, mean ± SD, n=3, read-out: EC50 ZR‐75‐1

T1 sequence (P31751 whole entry): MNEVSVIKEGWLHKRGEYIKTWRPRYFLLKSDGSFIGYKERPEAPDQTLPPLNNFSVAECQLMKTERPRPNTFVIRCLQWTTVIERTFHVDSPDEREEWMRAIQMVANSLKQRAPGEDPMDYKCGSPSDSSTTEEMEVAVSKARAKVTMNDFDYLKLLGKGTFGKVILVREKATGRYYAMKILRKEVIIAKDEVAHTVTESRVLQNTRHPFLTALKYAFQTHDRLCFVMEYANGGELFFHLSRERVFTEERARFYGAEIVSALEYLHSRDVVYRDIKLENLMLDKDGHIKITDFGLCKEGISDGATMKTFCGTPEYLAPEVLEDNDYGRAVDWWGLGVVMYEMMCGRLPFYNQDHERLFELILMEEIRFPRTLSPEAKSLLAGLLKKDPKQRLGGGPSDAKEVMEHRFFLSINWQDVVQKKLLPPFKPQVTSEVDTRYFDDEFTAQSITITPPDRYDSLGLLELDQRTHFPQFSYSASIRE

IC50 (Akt2)	EC50 (BT-474 cells; [2])	EC50 (MCF-7 cells; [3])	EC50 (T47D cells)	melting point	IC50 (Akt1)	IC50 Akt1 (Akt1; wild-type Akt1)	IC50 (Akt3)	Compound	EC50 (AN3CA cells; [1])	EC50 (KU-19-19 cells)	EC50 (ZR-75-1 cells; [4])	covalent binding to Akt1 (mass increase by LC-MS) (wild-type Akt1)	EC50 (AN3CA cells)	EC50 (BT-474 cells; BT-474, read-out: EC50 BT‐474)	EC50 (MCF-7 cells; MCF7, read-out: EC50 MCF‐7)	EC50 (ZR-75-1 cells; ZR-75-1, read-out: EC50 ZR‐75‐1)
> 20 µM	11.2 ± 4.73 µM	3.61 ± 0.804 µM	4.59 ± 1.31 µM	130 to 132 °C	> 20 µM	inactive	> 20 µM	C=CC(=O)Nc1cccc(-c2cn(C3CCN(Cc4ccc(-c5nc6ccccn6c5-c5cccc(C)c5)cc4)CC3)nn2)c1 [Compound 9, N ‐{3‐[1‐(1‐{4‐[3‐(m‐Tolyl)imidazo[1,2‐a]pyridin‐2‐yl]benzyl}piperidin‐4‐yl)‐1H‐1,2,3‐triazol‐4‐yl]phenyl}acrylamide]	5.13 ± 1.28 µM	9.45 ± 1.04 µM	4.2 ± 0.817 µM					
> 20 µM	> 30 µM	18.2 ± 2.56 µM	> 30 µM	128 to 130 °C	> 20 µM		> 20 µM	C=CC(=O)Nc1ccccc1-c1cn(C2CCN(Cc3ccc(-c4nc5ccccn5c4-c4ccccc4C)cc3)CC2)nn1 [Compound 6, N ‐{2‐[1‐(1‐{4‐[3‐(o‐Tolyl)imidazo[1,2‐a]pyridin‐2‐yl]benzyl}piperidin‐4‐yl)‐1H‐1,2,3‐triazol‐4‐yl]phenyl}acrylamide]	14.7 ± 2.35 µM	22 ± 4.98 µM	15.5 ± 1.86 µM					
	1.68 ± 0.316 µM							NC1(c2ccc(-c3nc4ccn5c(=O)[nH]nc5c4cc3-c3ccccc3)cc2)CCC1 [MK‐2206, reference compound]		5.53 ± 0.927 µM	0.063 ± 0.021 µM					

Further lines, the compound ahead of its results:

Compound	IC50 (Akt2)	EC50 (BT-474 cells; [2])	EC50 (MCF-7 cells; [3])	EC50 (T47D cells)	melting point	IC50 (Akt1)	IC50 Akt1 (Akt1; wild-type Akt1)	IC50 (Akt3)	EC50 (AN3CA cells; [1])	EC50 (KU-19-19 cells)	EC50 (ZR-75-1 cells; [4])	covalent binding to Akt1 (mass increase by LC-MS) (wild-type Akt1)	EC50 (AN3CA cells)	EC50 (BT-474 cells; BT-474, read-out: EC50 BT‐474)	EC50 (MCF-7 cells; MCF7, read-out: EC50 MCF‐7)	EC50 (ZR-75-1 cells; ZR-75-1, read-out: EC50 ZR‐75‐1)
C=CC(=O)Nc1ccccc1-c1cn(C2CCN(Cc3ccc(-c4nc5ccccn5c4-c4ccccc4)cc3)CC2)nn1 [Compound 4, N ‐[2‐(1‐{1‐[4‐(3‐Phenylimidazo[1,2‐a]pyridin‐2‐yl)benzyl]piperidin‐4‐yl}‐1H‐1,2,3‐triazol‐4‐yl)phenyl]acrylamide]	> 20 µM	15.4 ± 6.13 µM	8.55 ± 1.25 µM	15.2 ± 3.25 µM		0.925 ± 0.277 µM		> 20 µM	12.3 ± 3.48 µM	29.4 ± 9.59 µM	1.75 ± 0.428 µM	partial covalent binders; also recorded: partial labelling				
C=CC(=O)Nc1ccc(-c2cn(C3CCN(Cc4ccc(-c5nc6ccccn6c5-c5ccccc5C)cc4)CC3)nn2)cc1 [Compound 8, N ‐{4‐[1‐(1‐{4‐[3‐(o‐Tolyl)imidazo[1,2‐a]pyridin‐2‐yl]benzyl}piperidin‐4‐yl)‐1H‐1,2,3‐triazol‐4‐yl]phenyl}acrylamide]	> 20 µM	7.39 ± 2.34 µM	4.3 ± 1.18 µM	4.52 ± 1.59 µM	169 to 170 °C	> 20 µM		> 20 µM	5.87 ± 0.403 µM	7.63 ± 0.636 µM	5.32 ± 0.426 µM					
NC1(C(=O)N[C@@H](CCO)c2ccc(Cl)cc2)CCN(c2ncnc3[nH]ccc23)CC1 [Capivasertib, reference compound]		1.6 ± 0.45 µM	2.65 ± 0.555 µM							3.06 ± 2.33 µM						
C=CC(=O)Nc1cccc(-c2cn(C3CCN(Cc4ccc(-c5nc6ccccn6c5-c5ccccc5C)cc4)CC3)nn2)c1 [Compound 7, N ‐{3‐[1‐(1‐{4‐[3‐(o‐Tolyl)imidazo[1,2‐a]pyridin‐2‐yl]benzyl}piperidin‐4‐yl)‐1H‐1,2,3‐triazol‐4‐yl]phenyl}acrylamide]	> 20 µM	9.91 ± 4.14 µM	4.38 ± 1.59 µM	4.86 ± 0.627 µM	124 to 126 °C	> 20 µM		> 20 µM	5.71 ± 0.706 µM	7.69 ± 0.664 µM	4.19 ± 1.11 µM					
CC(C)NC[C@@H](C(=O)N1CCN(c2ncnc3c2[C@H](C)C[C@H]3O)CC1)c1ccc(Cl)cc1 [Ipatasertib, reference compound]				0.447 ± 0.002 µM						4.23 ± 3.39 µM			0.925 ± 0.457 µM	2.37 ± 0.745 µM	5.04 ± 1.83 µM	0.219 ± 0.083 µM
C=CC(=O)Nc1ccc2[nH]c(=O)n(C3CCN(Cc4ccc(-c5nc6cc[nH]c(=O)c6cc5-c5ccccc5)cc4)CC3)c2c1 [Compound 2, borussertib, reference compound]										7.82 ± 3.27 µM				0.373 ± 0.054 µM	0.277 ± 0.09 µM	

From publication PMC9311865, “Covalent Allosteric Inhibitors of Akt Generated Using a Click Fragment Approach” (Chemmedchem, 2022)
